# Test results taken from paper PMC12627933, “A First-In-Human Study of the SUMOylation Inhibitor Subasumstat in Patients with Advanced/Metastatic Solid Tumors or Relapsed/Refractory Hematologic Malignancies” (Cancer Research Communications, 2025).
# Experiment: Safety: treatment-emergent adverse events (NCI CTCAE v5.0; CRS per ASTCT), phase I/II study NCT03648372
# Assay type: in vivo
# Experimental: This study comprised two parts: a phase I dose escalation and a phase II dose expansion (Fig. 1). In the dose-escalation phase, patients were enrolled to receive subasumstat intravenously as a 1-hour (±10 minutes) infusion on days 1, 4, 8, and 11 of a 21-day cycle (biweekly schedule). […] Dose escalation was based on cohort with an adaptive design using Bayesian logistic regression modeling with overdose control. The starting dose of subasumstat was based on Good Laboratory Practice animal toxicity studies and supported by the estimation of a minimum anticipated biologically effective level. A detailed description of dose-limiting toxicities (DLT) is presented in the Supplementary Methods.
# The phase II dose-expansion portion enrolled patients to receive the recommended phase II dose (RP2D) determined in phase I, with each cohort assessed separately using an adaptive two-stage design for a single proportion (see Supplementary Methods). For stage 1, each cohort was analyzed when a prespecified number of patients were enrolled and had the potential to have at least one posttreatment scan [i.e., after the first disease assessment, 2 months from cycle 1 day 1 (C1D1)]. If the prespecified minimal response rate was not achieved in the first stage for a given cohort, that cohort would be closed to enrollment. […] The final analysis of the primary endpoints for each cohort would take place when all ongoing patients had the opportunity to complete the 6-month disease assessment. Across both phases, patients received subasumstat for up to 1 year or until confirmed disease progression, unacceptable toxicity, if any withdrawal criterion from the study was met, or if discontinuation of subasumstat occurred.
# The occurrence of DLTs was assessed during cycle 1 (DLTs are described in the Supplementary Methods). Treatment-emergent adverse events (TEAE) were graded according to NCI Common Terminology Criteria for Adverse Events version 5.0, except for cytokine release syndrome (CRS), which was graded according to the American Society for Transplantation and Cellular Therapy Consensus Grading for CRS ([20]).
# It was anticipated that approximately 70 DLT-evaluable patients would be enrolled for dose escalation. The safety analysis set included all patients who received at least one dose, even if incomplete, of subasumstat. […] The overall response rate (ORR) was defined as the proportion of patients who achieved complete response and partial response (PR) during the study. The disease control rate (DCR) was defined as the proportion of patients who achieved […] as per RECIST v1.1 for solid tumors or Lugano classification for lymphomas. […] Progression-free survival was summarized descriptively using the Kaplan–Meier method.
compound,measurement,setting,value
Cc1sc(C(=O)c2cncnc2N[C@@H]2C[C@H](COS(N)(=O)=O)[C@@H](O)C2)cc1[C@@H]1NCCc2ccc(Cl)cc21 [subasumstat],TEAE: Dyspnea,Phase I (n = 84),22 (26.2) n (%)
same,TEAE: Fatigue,Phase I (n = 84),42 (50.0) n (%)
same,TEAE: Headache,Phase I (n = 84),30 (35.7) n (%)
same,TEAE: Hypophosphatemia,Phase I (n = 84),11 (13.1) n (%)
same,TEAE: Insomnia,Phase I (n = 84),11 (13.1) n (%)
same,TEAE: Nausea,Phase I (n = 84),41 (48.8) n (%)
same,TEAE: Peripheral edema,Phase I (n = 84),15 (17.9) n (%)
same,TEAE: Pleural effusion,Phase I (n = 84),9 (10.7) n (%)
same,TEAE: Pyrexia,Phase I (n = 84),28 (33.3) n (%)
same,TEAE: Stomatitis,Phase I (n = 84),8 (9.5) n (%)
same,TEAE: Vomiting,Phase I (n = 84),27 (32.1) n (%)
same,TEAEs,Phase I (n = 84),81 (96.4) n (%)
same,TEAEs leading to discontinuation,Phase I (n = 84),8 (9.5) n (%)
same,TEAEs leading to discontinuation related to subasumstat,Phase I (n = 84),3 (3.6) n (%)
same,TEAEs related to subasumstat,Phase I (n = 84),65 (77.4) n (%)
same,AESI (adverse event of special interest),Phase II (n = 25),3 (12.0) n (%)
same,AESI related to subasumstat,Phase II (n = 25),3 (12.0) n (%)
same,AESI: CRS,Phase II (n = 25),3 (12.0) n (%)
same,Grade ≥3 TEAE: Abdominal pain,Phase II (n = 25),2 (8.0) n (%)
same,Grade ≥3 TEAE: Acute kidney injury,Phase II (n = 25),2 (8.0) n (%)
same,Grade ≥3 TEAE: Anemia,Phase II (n = 25),5 (20.0) n (%)
same,Grade ≥3 TEAE: Aspartate aminotransferase increased,Phase II (n = 25),0 n (%)
same,Grade ≥3 TEAE: Blood bilirubin increased,Phase II (n = 25),0 n (%)
same,Grade ≥3 TEAE: Dyspnea,Phase II (n = 25),0 n (%)
same,Grade ≥3 TEAE: Fatigue,Phase II (n = 25),0 n (%)
same,Grade ≥3 TEAE: Hyperbilirubinemia,Phase II (n = 25),2 (8.0) n (%)
same,Grade ≥3 TEAE: Hypertension,Phase II (n = 25),1 (4.0) n (%)
same,Grade ≥3 TEAE: Hypokalemia,Phase II (n = 25),0 n (%)
same,Grade ≥3 TEAE: Hypomagnesemia,Phase II (n = 25),0 n (%)
same,Grade ≥3 TEAE: Hypophosphatemia,Phase II (n = 25),0 n (%)
same,Grade ≥3 TEAE: Lymphocyte count decreased,Phase II (n = 25),0 n (%)
same,Grade ≥3 TEAE: Lymphopenia,Phase II (n = 25),1 (4.0) n (%)
same,Grade ≥3 TEAE: Muscular weakness,Phase II (n = 25),2 (8.0) n (%)
same,Grade ≥3 TEAE: Nausea,Phase II (n = 25),0 n (%)
same,Grade ≥3 TEAE: Neutropenia,Phase II (n = 25),4 (16.0) n (%)
same,Grade ≥3 TEAE: Platelet count increased,Phase II (n = 25),2 (8.0) n (%)
same,Grade ≥3 TEAE: Pleural effusion,Phase II (n = 25),0 n (%)
same,Grade ≥3 TEAE: Pneumonia,Phase II (n = 25),1 (4.0) n (%)
same,Grade ≥3 TEAE: Pneumonitis,Phase II (n = 25),0 n (%)
same,Grade ≥3 TEAE: Pyrexia,Phase II (n = 25),0 n (%)
same,Grade ≥3 TEAE: Small intestinal obstruction,Phase II (n = 25),0 n (%)
same,Grade ≥3 TEAE: Thrombocytopenia,Phase II (n = 25),1 (4.0) n (%)
same,Grade ≥3 TEAE: Vomiting,Phase II (n = 25),0 n (%)
same,Grade ≥3 TEAEs,Phase II (n = 25),18 (72.0) n (%)
same,Grade ≥3 TEAEs related to subasumstat,Phase II (n = 25),11 (44.0) n (%)
same,Grade ≥3 subasumstat-related TEAE: Anemia,Phase II (n = 25),3 (12.0) n (%)
same,Grade ≥3 subasumstat-related TEAE: Aspartate aminotransferase increased,Phase II (n = 25),0 n (%)
same,Grade ≥3 subasumstat-related TEAE: Hypokalemia,Phase II (n = 25),0 n (%)
same,Grade ≥3 subasumstat-related TEAE: Lymphocyte count decreased,Phase II (n = 25),0 n (%)
same,Grade ≥3 subasumstat-related TEAE: Muscular weakness,Phase II (n = 25),2 (8.0) n (%)
same,Grade ≥3 subasumstat-related TEAE: Neutropenia,Phase II (n = 25),4 (16.0) n (%)
same,Grade ≥3 subasumstat-related TEAE: Platelet count increased,Phase II (n = 25),2 (8.0) n (%)
same,Grade ≥3 subasumstat-related TEAE: Pneumonitis,Phase II (n = 25),0 n (%)
same,Grade ≥3 subasumstat-related TEAE: Thrombocytopenia,Phase II (n = 25),1 (4.0) n (%)
same,On-study deaths,Phase II (n = 25),2 (8.0) n (%)
same,Patients with at least one grade ≥3 TEAE,Phase II (n = 25),18 (72.0) n (%)
same,Patients with at least one grade ≥3 subasumstat-related TEAE,Phase II (n = 25),11 (44.0) n (%)
same,Serious adverse events,Phase II (n = 25),11 (44.0) n (%)
same,Serious adverse events related to subasumstat,Phase II (n = 25),5 (20.0) n (%)
same,Subasumstat-related TEAE: Anemia,Phase II (n = 25),4 (16.0) n (%)
same,Subasumstat-related TEAE: CRS,Phase II (n = 25),3 (12.0) n (%)
same,Subasumstat-related TEAE: Chills,Phase II (n = 25),6 (24.0) n (%)
same,Subasumstat-related TEAE: Decreased appetite,Phase II (n = 25),3 (12.0) n (%)
same,Subasumstat-related TEAE: Diarrhea,Phase II (n = 25),6 (24.0) n (%)
same,Subasumstat-related TEAE: Dyspnea,Phase II (n = 25),2 (8.0) n (%)
same,Subasumstat-related TEAE: Fatigue,Phase II (n = 25),7 (28.0) n (%)
same,Subasumstat-related TEAE: Headache,Phase II (n = 25),5 (20.0) n (%)
same,Subasumstat-related TEAE: Hypokalemia,Phase II (n = 25),0 n (%)
same,Subasumstat-related TEAE: IRR,Phase II (n = 25),1 (4.0) n (%)
same,Subasumstat-related TEAE: Myalgia,Phase II (n = 25),2 (8.0) n (%)
